Source: PubChem BioAssay (NCI)
Values joined by “and” are separate entries in the source; they are usually repeats but may differ in a detail not shown here. Equal values may be shown once.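 Dose response: 5 concentrations. Exposure: 48 h. Format: 96-well plates. Endpoint: linear interpolation; highest concentration if not reached. GI50 is the concentration that inhibits growth by half. TGI marks complete inhibition of growth.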

Key:
Experiment in all cases: NCI anticancer screen, dose series, 48 h
RXF 393 renal = tested on: RXF 393 renal
RPMI-8226 leukemia = tested on: RPMI-8226 leukemia
PC-3 prostate = tested on: PC-3 prostate
MDA-MB-231 breast = tested on: MDA-MB-231 breast
HCT-116 colon = tested on: HCT-116 colon
HCT-15 colon = tested on: HCT-15 colon
IGROV1 ovarian = tested on: IGROV1 ovarian
A498 renal = tested on: A498 renal
SK-OV-3 ovarian = tested on: SK-OV-3 ovarian
BT-549 breast = tested on: BT-549 breast
EKVX NSCLC = tested on: EKVX NSCLC
SK-MEL-5 melanoma = tested on: SK-MEL-5 melanoma
HL-60(TB) leukemia = tested on: HL-60(TB) leukemia
HOP-62 NSCLC = tested on: HOP-62 NSCLC
U251 CNS = tested on: U251 CNS
LOX IMVI melanoma = tested on: LOX IMVI melanoma
UACC-62 melanoma = tested on: UACC-62 melanoma
ACHN renal = tested on: ACHN renal
NCI-H23 lung = tested on: NCI-H23 lung
UO-31 renal = tested on: UO-31 renal
SK-MEL-28 melanoma = tested on: SK-MEL-28 melanoma
T-47D breast = tested on: T-47D breast
OVCAR-5 ovarian = tested on: OVCAR-5 ovarian
UACC-257 melanoma = tested on: UACC-257 melanoma
OVCAR-4 ovarian = tested on: OVCAR-4 ovarian
SF-295 CNS = tested on: SF-295 CNS
M14 melanoma = tested on: M14 melanoma
CCRF-CEM leukemia = tested on: CCRF-CEM leukemia
SNB-19 CNS = tested on: SNB-19 CNS
KM12 colon = tested on: KM12 colon
SR leukemia = tested on: SR leukemia
A549 NSCLC = tested on: A549 NSCLC
SF-268 CNS = tested on: SF-268 CNS
HS 578T breast = tested on: HS 578T breast
MOLT-4 leukemia = tested on: MOLT-4 leukemia
OVCAR-3 ovarian = tested on: OVCAR-3 ovarian
K-562 leukemia = tested on: K-562 leukemia
HT29 colon = tested on: HT29 colon
NCI/ADR-RES ovarian = tested on: NCI/ADR-RES ovarian
SN12C renal = tested on: SN12C renal
MALME-3M melanoma = tested on: MALME-3M melanoma
COLO 205 colon = tested on: COLO 205 colon
OVCAR-8 ovarian = tested on: OVCAR-8 ovarian
DU-145 prostate = tested on: DU-145 prostate
NCI-H226 lung = tested on: NCI-H226 lung
NCI-H460 lung = tested on: NCI-H460 lung
CAKI-1 renal = tested on: CAKI-1 renal
NCI-H522 lung = tested on: NCI-H522 lung
SW-620 colon = tested on: SW-620 colon
TK-10 renal = tested on: TK-10 renal
HOP-92 NSCLC = tested on: HOP-92 NSCLC
HCC-2998 colon = tested on: HCC-2998 colon
MCF7 breast = tested on: MCF7 breast
SNB-75 CNS = tested on: SNB-75 CNS
786-0 renal = tested on: 786-0 renal
SF-539 CNS = tested on: SF-539 CNS
SK-MEL-2 melanoma = tested on: SK-MEL-2 melanoma
MDA-MB-435 = tested on: MDA-MB-435

## COc1ccc(Cl)c(Nc2nc3ccccc3nc2NS(=O)(=O)c2cccc(NC(=O)C(C)(C)N)c2)c1
RXF 393 renal
  GI50: 1.89 µM and 2.62 µM
  TGI: 9.03 µM and > 10 µM
RPMI-8226 leukemia
  GI50: 13.4 µM and > 10 µM
  TGI: 52.8 µM and > 10 µM
PC-3 prostate
  GI50: 3.42 µM and 2.65 µM
  TGI: 17.5 µM and > 10 µM
MDA-MB-231 breast
  GI50: 14.5 µM and > 10 µM
  TGI: 32.6 µM and > 10 µM
HCT-116 colon
  GI50: 12.8 µM and > 10 µM
  TGI: 25.8 µM and > 10 µM
HCT-15 colon
  GI50: 9.76 µM and 6.97 µM
  TGI: 22 µM and > 10 µM
IGROV1 ovarian
  GI50: 1.41 µM and 0.686 µM
  TGI: 6.63 µM and 4.86 µM
A498 renal
  GI50: 3.1 µM and 3.23 µM
  TGI: 13.6 µM and > 10 µM
SK-OV-3 ovarian
  GI50: 5 µM and 1.89 µM
  TGI: 18.6 µM and > 10 µM
BT-549 breast
  GI50: 4.87 µM and 4.42 µM
  TGI: 18.4 µM and > 10 µM
EKVX NSCLC
  GI50: 6.25 µM and > 10 µM
  TGI: 21 µM and > 10 µM
SK-MEL-5 melanoma
  GI50: 12.1 µM and > 10 µM
  TGI: 24.6 µM and > 10 µM
HL-60(TB) leukemia
  GI50: 5.93 µM and 2.1 µM
  TGI: 20.7 µM and > 10 µM
HOP-62 NSCLC
  GI50: 4.66 µM and > 10 µM
  TGI: 20 µM and > 10 µM
U251 CNS
  GI50: 11 µM and > 10 µM
  TGI: 24.1 µM and > 10 µM
LOX IMVI melanoma
  GI50: 6.52 µM and 4.14 µM
  TGI: 20.2 µM and > 10 µM
UACC-62 melanoma
  GI50: 13 µM
  TGI: 26.6 µM
ACHN renal
  GI50: 10.5 µM and > 10 µM
  TGI: 22.6 µM and > 10 µM
NCI-H23 lung
  GI50: 13.2 µM and > 10 µM
  TGI: 29.1 µM and > 10 µM
UO-31 renal
  GI50: 1.9 µM and 2.03 µM
  TGI: 13.5 µM and > 10 µM
SK-MEL-28 melanoma
  GI50: 7.93 µM and > 10 µM
  TGI: 22.2 µM and > 10 µM
T-47D breast
  GI50: 0.443 µM and 0.638 µM
  TGI: 5.05 µM and 5.77 µM
OVCAR-5 ovarian
  GI50: 4.76 µM and > 10 µM
  TGI: 22.5 µM and > 10 µM
UACC-257 melanoma
  GI50: 12.1 µM and > 10 µM
  TGI: 25.1 µM and > 10 µM
OVCAR-4 ovarian
  GI50: 14.8 µM and > 10 µM
  TGI: 28.3 µM and > 10 µM
SF-295 CNS
  GI50: 4.7 µM and 2.56 µM
  TGI: 18.8 µM and > 10 µM
M14 melanoma
  GI50: 12.5 µM and > 10 µM
  TGI: 29 µM and > 10 µM
CCRF-CEM leukemia
  GI50: 12.3 µM and > 10 µM
  TGI: 31.9 µM and > 10 µM
SNB-19 CNS
  GI50: 12.4 µM and > 10 µM
  TGI: 25.9 µM and > 10 µM
KM12 colon
  GI50: 12 µM and > 10 µM
  TGI: 30.9 µM and > 10 µM
SR leukemia
  GI50: 10.2 µM and > 10 µM
  TGI: 28.1 µM and > 10 µM
A549 NSCLC
  GI50: 7.7 µM and > 10 µM
  TGI: 21.4 µM and > 10 µM
SF-268 CNS
  GI50: 10.9 µM and 9.94 µM
  TGI: 25.5 µM and > 10 µM
HS 578T breast
  GI50: 2.37 µM and 1.69 µM
  TGI: 15.1 µM and > 10 µM
MOLT-4 leukemia
  GI50: 3.5 µM and 3.66 µM
  TGI: 17.4 µM and > 10 µM
OVCAR-3 ovarian
  GI50: 7.68 µM and 4.12 µM
  TGI: 21.3 µM and > 10 µM
K-562 leukemia
  GI50: 14.9 µM and > 10 µM
  TGI: 32.6 µM and > 10 µM
HT29 colon
  GI50: 9.87 µM and 6.23 µM
  TGI: 25.9 µM and > 10 µM
NCI/ADR-RES ovarian
  GI50: 12.1 µM and > 10 µM
  TGI: 32.3 µM and > 10 µM
SN12C renal
  GI50: 9.79 µM and > 10 µM
  TGI: 22.3 µM and > 10 µM
MALME-3M melanoma
  GI50: 10.2 µM and > 10 µM
  TGI: 24.9 µM and > 10 µM
COLO 205 colon
  GI50: 7.53 µM and 2.86 µM
  TGI: 22.3 µM and > 10 µM
OVCAR-8 ovarian
  GI50: 14 µM and > 10 µM
  TGI: 32.8 µM and > 10 µM
DU-145 prostate
  GI50: 12.1 µM and > 10 µM
  TGI: 25 µM and > 10 µM
NCI-H226 lung
  GI50: 15.3 µM and > 10 µM
  TGI: 40.2 µM and > 10 µM
NCI-H460 lung
  GI50: 6.51 µM and 4.52 µM
  TGI: 20.8 µM and > 10 µM
CAKI-1 renal
  GI50: 6.49 µM
  TGI: > 10 µM
NCI-H522 lung
  GI50: 14.7 µM and > 10 µM
  TGI: 30.5 µM and > 10 µM
SW-620 colon
  GI50: 11.6 µM and > 10 µM
  TGI: 26.2 µM and > 10 µM
TK-10 renal
  GI50: 5.68 µM and 4.24 µM
  TGI: 20.1 µM and > 10 µM
HOP-92 NSCLC
  GI50: 1.57 µM and 0.358 µM
  TGI: 9.94 µM and 5.42 µM
HCC-2998 colon
  GI50: 13 µM and 5.73 µM
  TGI: 26.6 µM and > 10 µM
MCF7 breast
  GI50: 2.66 µM and 1.9 µM
  TGI: 16.8 µM and > 10 µM
SNB-75 CNS
  GI50: 1.35 µM and 0.481 µM
  TGI: 10 µM and 6.6 µM
786-0 renal
  GI50: 6.19 µM and 5.38 µM
  TGI: 19.8 µM and > 10 µM
SF-539 CNS
  GI50: 7.35 µM and 4.42 µM
  TGI: 20.4 µM and > 10 µM
SK-MEL-2 melanoma
  GI50: 14.9 µM and > 10 µM
  TGI: 32.1 µM and > 10 µM
MDA-MB-435
  GI50: 11.5 µM and > 10 µM
  TGI: 25.2 µM and > 10 µM
